Measured values from patent US8987301B2, “Heteroarylaminoquinolines as TGF-beta receptor kinase inhibitors” (Merck Patent GmbH, priority 2009, dated 2015).

Biological target: T1, TβR (GST-ALK5) (Homo sapiens, UniProt P36897)
T1 sequence (P36897 34-503): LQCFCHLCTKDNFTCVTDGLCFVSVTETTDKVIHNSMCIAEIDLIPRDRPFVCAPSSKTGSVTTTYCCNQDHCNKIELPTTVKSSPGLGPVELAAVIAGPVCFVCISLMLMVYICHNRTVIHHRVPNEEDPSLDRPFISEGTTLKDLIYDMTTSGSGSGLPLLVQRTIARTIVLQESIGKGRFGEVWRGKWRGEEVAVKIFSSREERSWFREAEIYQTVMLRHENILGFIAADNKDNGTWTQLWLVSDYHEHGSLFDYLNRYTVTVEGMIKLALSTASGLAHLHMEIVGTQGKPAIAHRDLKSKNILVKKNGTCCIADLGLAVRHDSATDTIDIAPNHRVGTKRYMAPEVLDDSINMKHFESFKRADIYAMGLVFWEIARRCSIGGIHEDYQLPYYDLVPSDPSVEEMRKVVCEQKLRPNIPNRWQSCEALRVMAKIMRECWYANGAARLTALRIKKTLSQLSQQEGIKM
Test: In-vitro (enzyme) flashplate kinase assay, TβR activity
Type: biochemical
Conditions: GST-ALK5, GST-SMAD2 substrate, 3 mM ATP
Protocol: In-Vitro (Enzyme) Assay for Determination of the Efficacy of Inhibitors of the Inhibition of TGF-Beta-Mediated Effects
The kinase assay was carried out as 384-well flashplate assay. […] The reaction was stopped using 25 μl of 200 mM EDTA solution, filtered with suction at room temperature after 30 min, and the wells were washed with 3 times 100 μl of 0.9% NaCl solution. Radioactivity was measured in the TopCount. The IC50 values were calculated using RS1. Above and below, all temperatures were indicated in ° C.

Row | Compound | IC50 [nM]
1 | Fc1ccc(Cl)cc1-c1cc(Nc2ncnc3ccccc23)c2ccccc2n1 [compound 068] | < 500
2 | Fc1ccc(F)c(-c2cc(Nc3ccncc3)c3ccccc3n2)c1 [compound 043] | < 500
3 | Cc1nc2cnccc2n1-c1cc(-c2cc(Cl)ccc2F)nc2ccccc12 [compound 026] | 500 to 1000
4 | Nc1cc(Nc2cc(-c3cc(Cl)ccc3F)nc3ccccc23)ccn1 [compound 105] | < 500
5 | CC(=O)N(c1cc(N)ncn1)c1cc(-c2cc(Cl)ccc2F)nc2ccccc12 [compound 110] | 1000 to 10000
6 | COc1ccc(-c2cc(Nc3ccncc3)c3ccccc3n2)cc1 [compound 042] | 500 to 1000
7 | N#Cc1cccc(-c2cc(Nc3ccncc3)c3ccccc3n2)c1 [compound 055] | 1000 to 10000
8 | Clc1ccc(Cl)c(-c2cc(Nc3ccncc3)c3ccccc3n2)c1 [compound 048] | < 500
9 | Fc1ccccc1-c1cc(Nc2ccncc2)c2ccccc2n1 [compound 044] | < 500
10 | CN(C)c1cccc(-c2cc(Nc3ccncc3)c3ccccc3n2)c1 [compound 079] | 1000 to 10000
11 | CC(C)(C)S(=O)(=O)c1cnccc1Nc1cc(-c2cc(Cl)ccc2F)nc2ccccc12 [compound 096] | > 10000
12 | CN(C)C(=O)Nc1cnccc1Nc1cc(-c2cc(Cl)ccc2F)nc2ccccc12 [compound 031] | < 500
13 | CC(=O)OCC(=O)Nc1cnccc1Nc1cc(-c2cc(Cl)ccc2F)nc2ccccc12 [compound 085] | < 500
14 | Fc1ccc(Cl)c(-c2cc(Nc3ccncc3)c3ccccc3n2)c1 [compound 070] | 1000 to 10000
15 | Fc1ccc(Cl)cc1-c1cc(Nc2ccnc3ccccc23)c2ccccc2n1 [compound 013] | < 500
16 | O=C(Nc1cc(-c2cc(Cl)ccc2F)nc2ccccc12)c1cccnc1 [compound 010] | 1000 to 10000
17 | Fc1ccc(Cl)cc1-c1cc(Sc2ccncc2)c2ccccc2n1 [compound 011] | 1000 to 10000
18 | CN(C)CCCNc1cc(Nc2cc(-c3cc(Cl)ccc3F)nc3ccccc23)cc(Cl)n1 [compound 102] | 1000 to 10000
19 | Nc1cc(N(c2cc(-c3cc(Cl)ccc3F)nc3ccccc23)c2cc(-c3cc(Cl)ccc3F)nc3ccccc23)ncn1 [compound 037] | 1000 to 10000
20 | Fc1ccccc1-c1cc(Nc2ccncn2)c2ccccc2n1 [compound 045] | < 500
21 | Fc1ccc(Cl)cc1-c1cc(Nc2ccnc3cc(C(F)(F)F)ccc23)c2ccccc2n1 [compound 069] | < 500
22 | CN1CCC(C(=O)Nc2cnccc2Nc2cc(-c3cc(Cl)ccc3F)nc3ccccc23)CC1 [compound 027] | < 500
23 | CN1CCN(c2cc(Nc3cc(-c4cc(Cl)ccc4F)nc4ccccc34)ncn2)CC1 [compound 103] | > 10000
24 | Fc1ccc(Cl)cc1-c1cc(Cc2ccncc2)c2ccccc2n1 [compound 004] | > 10000
25 | Clc1cccc(-c2cc(Nc3ccncc3)c3ccccc3n2)c1Cl [compound 112] | > 10000
26 | Oc1ccc2c(Nc3cc(-c4cc(Cl)ccc4F)nc4ccccc34)ccnc2c1 [compound 098] | 500 to 1000

Row | Compound | IC50 [nM]
27 | COc1ccc2c(Nc3cc(-c4cc(Cl)ccc4F)nc4ccccc34)ccnc2c1 [compound 075] | < 500
28 | Fc1ccc(Cl)cc1-c1cc(Nc2ccncn2)c2ccccc2n1 [compound 003] | < 500
29 | Fc1ccc(Cl)cc1-c1cc(N(c2ccncn2)c2cc(-c3cc(Cl)ccc3F)nc3ccccc23)c2ccccc2n1 [compound 017] | 1000 to 10000
30 | Fc1ccc(C(F)(F)F)cc1-c1cc(Nc2ccncc2)c2ccccc2n1 [compound 056] | < 500
31 | c1ccc(-c2cc(Nc3ccncc3)c3ccccc3n2)cc1 [compound 073] | < 500
32 | Nc1cnccc1Nc1cc(-c2cc(Cl)ccc2F)nc2ccccc12 [compound 019] | < 500
33 | CN(C)CC(=O)Nc1cnccc1Nc1cc(-c2cc(Cl)ccc2F)nc2ccccc12 [compound 054] | < 500
34 | O=C(CO)Nc1cnccc1Nc1cc(-c2cc(Cl)ccc2F)nc2ccccc12 [compound 109] | 500 to 1000
35 | Fc1ccccc1-c1cc(Nc2ccncc2C(F)(F)F)c2ccccc2n1 [compound 046] | < 500
36 | Nc1cnncc1Nc1cc(-c2cc(Cl)ccc2F)nc2ccccc12 [compound 092] | 1000 to 10000
37 | O=C(O)c1cc(Nc2cc(-c3cc(Cl)ccc3F)nc3ccccc23)ccn1 [compound 124] | 1000 to 10000
38 | NCC(=O)Nc1cc(Nc2cc(-c3cc(Cl)ccc3F)nc3ccccc23)ccn1 [compound 115] | 1000 to 10000
39 | O=C(O)CCNc1cnccc1Nc1cc(-c2cc(Cl)ccc2F)nc2ccccc12 [compound 071] | > 10000
40 | FC(F)(F)c1ccc(Cl)cc1-c1cc(Nc2ccncc2)c2ccccc2n1 [compound 058] | > 10000
41 | Fc1ccc(Cl)cc1-c1cc(Oc2cccnc2)c2ccccc2n1 [compound 063] | > 10000
42 | Cc1cncc(-c2cc(Nc3ccncc3)c3ccccc3n2)c1 [compound 066] | > 10000
43 | Fc1ccc(Cl)cc1-c1cc(Nc2ccnc(Cl)c2)c2ccccc2n1 [compound 021] | 1000 to 10000
44 | O=c1[nH]c2cnccc2n1-c1cc(-c2ccccc2F)nc2ccccc12 [compound 034] | 500 to 1000
45 | CN1CCC(NC(=O)c2cnccc2Nc2cc(-c3cc(Cl)ccc3F)nc3ccccc23)CC1 [compound 125] | < 500
46 | Fc1ccc(Cl)cc1-c1cc(Nc2cn[nH]c2)c2ccccc2n1 [compound 016] | < 500
47 | Fc1ccc(Cl)cc1-c1cc(Nc2cc(N3CCOCC3)ncn2)c2ccccc2n1 [compound 106] | > 10000
48 | Nc1nc(N)nc(Nc2cc(-c3cc(Cl)ccc3F)nc3ccccc23)n1 [compound 117] | 1000 to 10000
49 | Nc1ccnc(Nc2cc(-c3cc(Cl)ccc3F)nc3ccccc23)c1 [compound 035] | > 10000
50 | CN(C)CCCc1nc2cnccc2n1-c1cc(-c2cc(Cl)ccc2F)nc2ccccc12 [compound 091] | 1000 to 10000
51 | CN(C)CCCC(=O)Nc1cnccc1Nc1cc(-c2cc(Cl)ccc2F)nc2ccccc12 [compound 067] | 500 to 1000
52 | CC(=O)Nc1cc(Nc2cc(-c3cc(Cl)ccc3F)nc3ccccc23)ccn1 [compound 107] | < 500
